Results as given in US20250129096A1, “ANNULATED 2-AMINO-3-CYANO THIOPHENES AND DERIVATIVES FOR THE TREATMENT OF CANCER” (Boehringer Ingelheim Int'l GmbH Corp., priority 2021, published 2025).
Values after ≈ are worked out from the molar mass of the structure shown. Where two headings read alike, the source gives them in different places.

How the values were obtained:
[1] = tested on: SAS cells (HNSCC, wt amplified); test: SAS CTG proliferation assay (120 h); format: cell-based; conditions: CellTiter-Glo
Experimental: (§1) SAS cells (JCRB0260) are dispensed into 384-well plates, flat and clear bottom (Greiner, PNr. 781091) at a density of 300 cells per well in 60 μL DMEM:F12 (Gibco 31330-038)+10% Fetal Calf Serum (HyClone, PNr.: SH30084.03) and incubated at 37° C. in a CO2 incubator overnight. The next day, compounds (10 mM stock in DMSO) are added with the ECHO acoustic liquid handler system (Beckman Coulter), including DMSO controls. Plates are incubated for 120 h, and cell viability is measured using CellTiter-Glo luminescent cell viability reagent (Promega product code G7570). Viability (stated as percent of control) is defined as relative luminescence units RLU of each well divided by the RLU of cells in DMSO controls. IC50 values are determined from viability measurements by non-linear regression using a four-parameter model.

[2] = Solubility measurement (DMSO solution precipitation method); format: physicochemical; conditions: aqueous buffer, kinetic from dmso stock, ambient temperature
Experimental: The DMSO solution is diluted with an aqueous medium (McIlvaine buffer with pH=4.5 or 6.8) to a final concentration of 250 μM. After 24 h of shaking at ambient temperature a potentially formed precipitate is removed by filtration. The concentration of the test compound in the filtrate is determined by LC-UV methods by calibrating the signal to the signal of a reference solution with complete dissolution of the test compound in acetonitrile/water (1:1) with known concentration.

[3] = molecular target: T1, KRAS (G12C)::SOS1 (Homo sapiens, UniProt P01116, C118S/C51S/C80L/G12C); test: KRAS::SOS1 AlphaScreen binding assay, KRAS G12C
T1 construct: KRAS (G12C) 1-169, N-terminal 6His-tag for purification, cleaved off; 6His-tag (N, cleaved yes)
Experimental: Low IC50 values in this assay setting are indicative of strong inhibition of protein-protein interaction between SOS1 and KRAS:
These assays measure the inhibitory effect of compounds on KRAS mutant protein-protein interactions using the Alpha Screen technology by Perkin Elmer.
For the chosen highest assay concentration of 100 μM, 150 nL of compound solution are transferred from a 10 mM DMSO compound stock solution. A series of eleven fivefold dilutions per compound are transferred to the assay plate, compound dilutions are tested in duplicates. DMSO are added as backfill to a total volume of 150 nL.
The assays run on a fully automated robotic system in a darkened room below 100 Lux. To 150 nl of compound dilution 10 μl of a mix including KRAS mutant protein, SOS1 (final assay concentrations see above) and GDP nucleotide (Sigma G7127; final assay concentration 10 μM) in assay buffer (1×PBS, 0.1% BSA, 0.05% Tween 20) are added into columns 1-24. After 30 minutes incubation time 5 μl of Alpha Screen bead mix in assay buffer are added into columns 1-23.
Plates are kept at room temperature in a darkened incubator. After an additional 60 minutes incubation time the signal is measured in a PerkinElmer Envision HTS Multilabel Reader using the AlphaScreen specs from PerkinElmer.
IC50 values are calculated and analyzed with Boehringer Ingelheim's MEGALAB IC50 application using a 4 parametric logistic model.

[4] = tested on: AsPC-1 cells (pancreatic cancer, G12D); test: AsPC-1 CTG proliferation assay (120 h); format: cell-based; conditions: Homo sapiens, ASPC1, CellTiter-Glo
Experimental: The CTG assay is designed to measure quantitatively the proliferation of AsPC-1 cells (ATCC […]), using the CellTiter Glow Assay Kit (Promega G7571). Cells are grown in RPMI medium (ATCC) supplemented with Fetal Calf Serum (Life Technologies, Gibco BRL, Cat. No. 10270-106). On “day 0” 2000 AsPC-1 cells are seeded in 60 μL RPMI ATCC+10% FCS+ Penstrep in a 384-well plate, flat and clear bottom (Greiner, PNr. 781091). Cells are then incubated in the plates at 37° C. in a CO2 incubator overnight. On day 1, compounds (10 mM stock in DMSO) are added with the ECHO acoustic liquid handler system (Beckman Coulter), including DMSO controls. Plates are incubated for 120 h, and cell viability is measured using CellTiter-Glo luminescent cell viability reagent (Promega product code G7570). Viability (stated as percent of control) is defined as relative luminescence units RLU of each well divided by the RLU of cells in DMSO controls. IC50 values are determined from viability measurements by non-linear regression using a four-parameter model.

[5] = tested on: LOVO cells (CRC, G13D); test: LOVO CTG proliferation assay (120 h); format: cell-based; conditions: Homo sapiens, CellTiter-Glo
Experimental: as §1, with “LOVO cells (ATCC” for “SAS cells (JCRB0260)”, “LOVO cells (ATCC CCL-229) are dispensed” for “SAS cells (JCRB0260) are dispensed”, “density of 1000 cells per” for “density of 300 cells per”, “60 μL DMEM (Sigma D6429)+10% Fetal Calf” for “60 μL DMEM:F12 (Gibco 31330-038)+10% Fetal Calf”

[6] = molecular target: KRAS G12D Ba/F3 cells (Homo sapiens, UniProt P01116, G12D, cells depend on it); test: Ba/F3 proliferation assay, KRAS G12D; format: cell-based; conditions: 72 h, AlamarBlue; read-out: KRAS G12D Ba/F3 IC50
Experimental: To generate KRASG12-dependent Ba/F3 models, Ba/F3 cells are transduced with retroviruses containing vectors that harbor KRASG12 isoforms. Platinum-E cells (Cell Biolabs) are used for retrovirus packaging. Retrovirus is added to Ba/F3 cells. To ensure infection, 4 μg/mL polybrene is added and cells are spinfected. […] Cells with an infection efficiency of 10% to 20% are further cultivated and puromycin selection with 1 μg/mL is initiated. As a control, parental Ba/F3 cells are used to show selection status. Selection is considered successful when parental Ba/F3 cells cultures died. To evaluate the transforming potential of KRASG12 mutations, the growth medium is no longer supplemented with IL-3. Ba/F3 cells harboring the empty vector are used as a control. Approximately ten days before conducting the experiments, puromycin is left out. […] All treatments are performed in technical duplicates. […] AlamarBlue™(ThermoFisher), a viability stain, is added and fluorescence measured in the PerkinElmer Envision HTS Multilabel Reader. The raw data are imported into and analyzed with the Boehringer Ingelheim proprietary software MegaLab (curve fitting based on the program PRISM, GraphPad Inc.).

[7] = McIlvaine buffer pH 4.5, 24 h, read-out: solubility pH 4.5
[8] = McIlvaine buffer pH 6.8, 24 h, read-out: solubility pH 6.8

T1 sequence (P01116 1-169 isoform P01116-2 G12C/C51S/C80L/C118S): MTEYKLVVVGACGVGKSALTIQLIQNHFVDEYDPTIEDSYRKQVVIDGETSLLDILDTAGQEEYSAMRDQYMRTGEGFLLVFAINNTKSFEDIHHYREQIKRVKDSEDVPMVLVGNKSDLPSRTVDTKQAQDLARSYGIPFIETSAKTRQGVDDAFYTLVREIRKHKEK
Sequence of KRAS G12D Ba/F3 cells (P01116 whole entry G12D, canonical isoform): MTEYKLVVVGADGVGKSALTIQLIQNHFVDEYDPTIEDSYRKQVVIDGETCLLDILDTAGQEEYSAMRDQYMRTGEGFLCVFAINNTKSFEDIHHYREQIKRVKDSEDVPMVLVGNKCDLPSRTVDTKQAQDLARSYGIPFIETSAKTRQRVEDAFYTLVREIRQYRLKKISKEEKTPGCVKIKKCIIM

Row | solubility at 24 h [2, 7] | solubility at 24 h [2, 8] | IC50 [3] | IC50 [4] | IC50 [5] | GI50 [6] | SMILES | IC50 [1]
1 | > 125 µg/mL | > 123 µg/mL | 7 nM | 8030 nM | 539 nM | 33 nM | CCN1[C@H]2C[C@H]2C[C@H]1[C@H](C)Oc1nccc(-c2onc3c2CCC[C@@]32CCCc3sc(N)c(C#N)c32)n1 [Ie-3] | 370 nM
2 | > 115 µg/mL | > 114 µg/mL | 8 nM | 5520 nM | 3810 nM | 155 nM | C[C@H](Oc1nccc(-c2noc3c2CCC[C@@]32CCCc3sc(N)c(C#N)c32)n1)[C@@]1(C)CCCN1C [IIe-1] | 4530 nM
3 | > 125 µg/mL | 41 µg/mL (≈ 80.6 µM) | 5 nM | 2560 nM | 567 nM | 66 nM | C[C@H](Oc1nccc(-c2onc3c2CCC[C@@]32CCCc3sc(N)c(C#N)c32)n1)[C@@H]1C[C@@H](F)CN1C [Ie-2] | 8000 nM
4 | > 110 µg/mL | 93 µg/mL (≈ 185 µM) | 7 nM | 4210 nM | 618 nM | 43 nM | C[C@H](Oc1nccc(-c2onc3c2CCC[C@@]32CCCc3sc(N)c(C#N)c32)n1)[C@@H]1C[C@@H]2C[C@@H]2N1C [Ih-1] | 428 nM
5 |  |  | 6 nM | 5860 nM | 178 nM | 66 nM | CC(Oc1nccc(-c2onc3c2CCC[C@@]32CCCc3sc(N)c(C#N)c32)n1)C12CCCN1CCC2 (stereo partly drawn) [Ie-5] | 1710 nM
6 | > 117 µg/mL | > 120 µg/mL | 3 nM | 650 nM |  | 16 nM | C[C@H](Oc1ccnc(-c2noc3c2CCC[C@@]32CCCc3sc(N)c(C#N)c32)n1)[C@@H]1CCCN1C [IIb-3] | 4960 nM
7 | 57 µg/mL (≈ 116 µM) | 32 µg/mL (≈ 65.4 µM) | 44 nM | 3570 nM | 2420 nM | 469 nM | CC1Cc2c(-c3ccnc(N4CCCNC[C@@H]4C)n3)noc2C2(CCCc3sc(N)c(C#N)c32)C1 (stereo partly drawn) [IIb-1] | 8230 nM
8 |  |  | 3 nM | 5480 nM | 333 nM | 28 nM | CO[C@@H]1C[C@@H]([C@H](C)Oc2nccc(-c3onc4c3CCC[C@@]43CCCc4sc(N)c(C#N)c43)n2)N(C)C1 [Ie-1] | 13600 nM
9 | 89 µg/mL (≈ 182 µM) | < 1 µg/mL | 15 nM | > 25000 nM | 10900 nM | 4670 nM | C[C@H](Oc1nccc(-c2onc3c2CCC[C@@]32CCCc3sc(N)c(C#N)c32)n1)[C@@H]1C[C@@H]2C[C@@H]2N1 [If-2] | 8840 nM
10 | 92 µg/mL (≈ 193 µM) | 51 µg/mL (≈ 107 µM) | 7 nM | 3620 nM | 2870 nM | 32 nM | C[C@H]1CNCCCN1c1nccc(-c2noc3c2CCC[C@@]32CCCc3sc(N)c(C#N)c32)n1 (single isomer, unassigned) [IIb-5] | 541 nM

Second part, the molecule before the results:

Row | SMILES | solubility at 24 h [2, 7] | solubility at 24 h [2, 8] | IC50 [3] | IC50 [4] | IC50 [5] | GI50 [6] | IC50 [1]
11 | C[C@H]1CNCCCN1c1nccc(-c2noc3c2OCCC32CCCc3sc(N)c(C#N)c32)n1 (stereo partly drawn) [IIb-7] | > 103 µg/mL | > 100 µg/mL | 4 nM | 2800 nM | 479 nM | 123 nM | 6600 nM
12 | C[C@H]1CNCCCN1c1nccc(-c2onc3c2CCC[C@@]32CCCc3sc(N)c(C#N)c32)n1 [If-1] |  |  | 8 nM | 6680 nM | 3060 nM | 77 nM | 8270 nM
13 | C[C@H]1CNCCN1c1nccc(-c2noc3c2CCC[C@@]32CCCc3sc(N)c(C#N)c32)n1 [IIf-1] |  |  |  | 1510 nM | 479 nM |  | 1380 nM
14 | C[C@H]1CNCCCN1c1nccc(-c2noc3c2CSCC32CCCc3sc(N)c(C#N)c32)n1 (stereo partly drawn) [IIb-4] |  |  | 19 nM | 4130 nM | 1660 nM | 174 nM | 8080 nM
15 | C[C@H]1CNCCCN1c1nccc(-c2noc3c2CC(F)(F)CC32CCCc3sc(N)c(C#N)c32)n1 (stereo partly drawn) [IIb-2] | 53 µg/mL (≈ 104 µM) | 27 µg/mL (≈ 52.8 µM) | 39 nM | 5110 nM | 3250 nM | 798 nM | 2960 nM
16 | C[C@H]1[C@@H]2CCCN2CCCN1c1nccc(-c2onc3c2CCC[C@@]32CCCc3sc(N)c(C#N)c32)n1 [Id-1] | > 117 µg/mL | > 108 µg/mL | 3 nM | 3570 nM | 10000 nM | 27 nM | 3990 nM
17 | C[C@H]1CNCCCN1c1ncnc(-c2onc3c2CCC[C@@]32CCCc3sc(N)c(C#N)c32)n1 [Ib-4] | > 104 µg/mL | 95 µg/mL (≈ 199 µM) | 9 nM | > 25000 nM | 7250 nM | 211 nM | 57 nM
18 | C[C@@H]1NCCCN(c2nccc(-c3onc4c3CCC[C@@]43CCCc4sc(N)c(C#N)c43)n2)[C@H]1C [Ib-2] |  |  | 14 nM | 5970 nM | 1100 nM | 101 nM | 1090 nM
